Data from patent publication US4314028A, “Fermentation process for producing tallysomycin compounds” (priority 1980, dated 1982).

How the values were obtained:
[1] = system: Mycobacterium smegmatis strain M6-3; assay: Relative antibacterial potency, paper-disc agar diffusion method; assay type: cell-based; conditions: relative to tallysomycin A standard=1000 mcg/mg
Protocol: The relative antibacterial potencies (tallysomycin A standard=1000 mcg/mg) of the tallysomycin derivatives were determined by the paper-disc agar diffusion method using Mycobacterium smegmatis strain M6-3 as the assay organism.

[2] = system: lysogenic bacterium E. coli W1709 (λ); assay: Prophage induction of lysogenic bacterium (ILB activity); assay type: cell-based; conditions: t/c ratio of plaque counts greater than 3.0
Protocol: The activity of prophage induction of lysogenic bacterium E. coli W1709 (λ) was determined according to the method disclosed by Lein et al. in Nature 196: 783-784 (1962). The plaque count was made on the agar plate containing test compound (t) and control plate (c). A t/c ratio of the plaque counts of greater than 3.0 was defined to be a significant level and lysogenic induction activity (ILB activity) was expressed by the minimum inducible concentration of the test compound.

[3] = system: Sarcoma 180; assay: animal or person; assay type: in vivo, dd-strain mice; conditions: copper-chelated form unless otherwise stated; for Antitumor activity S180 (ED150): ip, once daily 9 days, effective dose 150, survival; for Antitumor therapeutic index S180: single dose LD50/ED150
Text: (§1) The antitumor activity of the tallysomycin derivatives was examined in four experimental tumor systems in mice. Lymphocytic leukemia P388 and Lewis lung carcinoma were implanted intraperitoneally into BDF1 mice of either sex at an inoculum size of 3×10^5 and 5×10^5 cells per mouse, respectively. Sarcoma 180 ascites tumor was inoculated intraperitoneally into male dd-strain mice with […] per mouse. Melanotic melanoma B16 was implanted subcutaneously into BDF1 mice with 5×10^5 cells per mouse. Twenty-four hours after the implantation of tumor cells, graded doses of test compounds were administered to mice intraperitoneally in an injection volume of 0.2 ml. per 10 grams of body weight. Test compounds were given once daily for 9 days (qd 1→9 schedule) except for the mice inoculated with Lewis lung carcinoma which were treated for 11 days (qd 1→11). Death or survival of the treated and non-treated (control) animals was recorded daily during the observation period of 45 days after the implantation of tumor cells, and the median survival time was calculated for each of the test (T) and control (C) groups. […] The actual dose giving a T/C of 125% was estimated by linear regression analysis and defined as the effective dose 125 or ED125. The effective dose 150 (ED150) was employed for the evaluation of antitumor effect against Sarcoma 180. In the B16 melanoma experiment the tumor size was measured on day 16 after tumor inoculation, and the dose giving 50% inhibition of tumor growth (ID50) was calculated from regression lines.
(§2) The antitumor therapeutic index was calculated for each derivative from the ratio of toxicity and antitumor activity.

[4] = system: Escherichia coli NIHJ; assay: MIC, two-fold agar dilution method; assay type: cell-based; conditions: nutrient agar
Protocol: (§3) The minimum inhibitory concentrations (MIC) of the semibiosynthetic tallysomycin derivatives of the present invention were determined against fungi and gram-positive, gram-negative and acid-fast bacteria by the two-fold agar dilution method. Nutrient agar was used for bacteria and Sabouraud agar for fungi. The results are shown in the table below comparatively with tallysomycin A and B.

[5] = system: Mycobacterium 607; assay: MIC, two-fold agar dilution method; assay type: cell-based; conditions: nutrient agar
Protocol: as §3

[6] = system: Proteus mirabilis A9554; assay: MIC, two-fold agar dilution method; assay type: cell-based; conditions: nutrient agar
Protocol: as §3

[7] = system: Sarcina lutea PCI1001; assay: MIC, two-fold agar dilution method; assay type: cell-based; conditions: nutrient agar
Protocol: as §3

[8] = system: Candida albicans IAM 4888; assay: MIC, two-fold agar dilution method; assay type: cell-based; conditions: Sabouraud agar
Protocol: as §3

[9] = system: Staphylococcus aureus Smith; assay: MIC, two-fold agar dilution method; assay type: cell-based; conditions: nutrient agar
Protocol: as §3

[10] = system: Bacillus subtilis PCI 219; assay: MIC, two-fold agar dilution method; assay type: cell-based; conditions: nutrient agar
Protocol: as §3

[11] = system: Aspergillus fumigatus IAM 2593; assay: MIC, two-fold agar dilution method; assay type: cell-based; conditions: Sabouraud agar
Protocol: as §3

[12] = system: Lymphocytic leukemia P388; assay: animal or person; assay type: in vivo, BDF1 mice; conditions: copper-chelated form unless otherwise stated; for Antitumor activity P388 (ED125): ip, once daily 9 days, dose giving T/C survival of 125%; for Antitumor therapeutic index P388: single dose LD50/ED125
Text: as §1, §2

[13] = Acute toxicity, single dose LD50; assay type: in vivo, dd mice; conditions: ip, 30 days observation, copper-chelated form unless otherwise stated
Protocol: Graded doses of test compounds were administered intraperitoneally to groups of dd mice. The injection was given one time only or once daily for 9 consecutive days. Death or survival of the animals was recorded for 30 days after the last dose of test compound to calculate the single or multiple median lethal dose (LD50).

[14] = system: Melanotic melanoma B16; assay: Antitumor activity in mice, melanotic melanoma B16; assay type: in vivo, BDF1 mice; conditions: copper-chelated form unless otherwise stated; for Antitumor activity B16 (ID50): ip, once daily 9 days, 50% inhibition of tumor growth, day 16, 23040 min; for Antitumor therapeutic index B16: single dose LD50/ID50
Text: as §1, §2

[15] = system: Lewis lung carcinoma; assay: Antitumor activity in mice, Lewis lung carcinoma; assay type: in vivo, BDF1 mice; conditions: copper-chelated form unless otherwise stated; for Antitumor activity Lewis lung (ED125): ip, once daily 11 days, dose giving T/C survival of 125%; for Antitumor therapeutic index Lewis Lung: single dose LD50/ED125
Text: as §1, §2

Structure (SMILES)	Antibacterial potency [1]	ILB activity (minimum inducible concentration) [2]	Antitumor activity S180 (ED150) [3]	Antitumor therapeutic index S180 [3]	minimum inhibitory concentration (MIC) [4]	minimum inhibitory concentration (MIC) [5]	minimum inhibitory concentration (MIC) [6]	minimum inhibitory concentration (MIC) [7]	minimum inhibitory concentration (MIC) [8]	minimum inhibitory concentration (MIC) [9]	minimum inhibitory concentration (MIC) [10]	minimum inhibitory concentration (MIC) [11]	Antitumor activity P388 (ED125) [12]	Antitumor therapeutic index P388 [12]	LD50 single dose [13]	Antitumor activity B16 (ID50) [14]	Antitumor therapeutic index B16 [14]	Antitumor activity Lewis lung (ED125) [15]	Antitumor therapeutic index Lewis Lung [15]
Cc1c(N)nc(C(CC(N)=O)NCC(N)C(N)=O)nc1C(=O)NC(C(=O)NC(C)C(O)CC(=O)NC(C(=O)NC(OC1OC(C)C(N)C(O)C1O)C(O)c1nc(-c2nc(C(=O)NCCCN)cs2)cs1)C(C)O)C(OC1OC(CO)C(O)C(O)C1OC1OC(CO)C(O)C(OC(N)=O)C1O)c1c[nH]cn1 (stereo not drawn) [Tallysomycin S1b]	1,000 μ/mg	0.31 µg/mL	0.11 mg/kg/day	173	0.4	< 0.05	1.6	1.6	12.5	1.6	< 0.05	1.6	2.0 mg/kg/day	10	19 mg/kg/day	0.15 mg/kg/day	127	0.12 mg/kg/day	158
CNCCCNC(=O)c1csc(-c2csc(C(O)C(NC(=O)C(NC(=O)CC(O)C(C)NC(=O)C(NC(=O)c3nc(C(CC(N)=O)NCC(N)C(N)=O)nc(N)c3C)C(OC3OC(CO)C(O)C(O)C3OC3OC(CO)C(O)C(OC(N)=O)C3O)c3c[nH]cn3)C(C)O)OC3OC(C)C(N)C(O)C3O)n2)n1 (stereo not drawn) [Tallysomycin S11b]	450 μ/mg	0.63 µg/mL	0.20 mg/kg/day	105	0.2	0.1	1.6	0.8	12.5	3.1	0.1	6.3	0.28 mg/kg/day	75	21 mg/kg/day	0.70 mg/kg/day	30	0.32 mg/kg/day	66
Cc1c(N)nc(C(CC(N)=O)NCC(N)C(N)=O)nc1C(=O)NC(C(=O)NC(C)C(O)CC(=O)NC(C(=O)NC(OC1OC(C)C(N)C(O)C1O)C(O)c1nc(-c2nc(C(=O)NCCCNCCO)cs2)cs1)C(C)O)C(OC1OC(CO)C(O)C(O)C1OC1OC(CO)C(O)C(OC(N)=O)C1O)c1c[nH]cn1 (stereo not drawn) [Tallysomycin S6b]	340 μ/mg	0.08 µg/mL	0.08 mg/kg/day	375	0.4	0.2	3.1	12.5	25	6.3	0.02	0.8	2.2 mg/kg/day	14	30 mg/kg/day	0.22 mg/kg/day	136	0.17 mg/kg/day	176
Cc1c(N)nc(C(CC(N)=O)NCC(N)C(N)=O)nc1C(=O)NC(C(=O)NC(C)C(O)CC(=O)NC(C(=O)NC(OC1OC(C)C(N)C(O)C1O)C(O)c1nc(-c2nc(C(=O)NCCN)cs2)cs1)C(C)O)C(OC1OC(CO)C(O)C(O)C1OC1OC(CO)C(O)C(OC(N)=O)C1O)c1c[nH]cn1 (stereo not drawn) [Tallysomycin S3b]	725 μ/mg	0.31 µg/mL	0.06 mg/kg/day	317	0.1	0.05	0.2	1.6	12.5	0.8	0.013	0.8	0.32 mg/kg/day	59	19 mg/kg/day	0.20 mg/kg/day	95	0.26 mg/kg/day	73
Cc1c(N)nc(C(CC(N)=O)NCC(N)C(N)=O)nc1C(=O)NC(C(=O)NC(C)C(O)CC(=O)NC(C(=O)NC(OC1OC(C)C(N)C(O)C1O)C(O)c1nc(-c2nc(C(=O)NCCCN(CCO)CCO)cs2)cs1)C(C)O)C(OC1OC(CO)C(O)C(O)C1OC1OC(CO)C(O)C(OC(N)=O)C1O)c1c[nH]cn1 (stereo not drawn) [Tallysomycin S8b]	370 μ/mg	0.02 µg/mL	0.25 mg/kg/day	120	0.2	0.1	0.8	0.8	> 50	0.4	0.013	1.6	1.5 mg/kg/day	20	30 mg/kg/day	0.26 mg/kg/day	115	0.12 mg/kg/day	250
Cc1c(N)nc(C(CC(N)=O)NCC(N)C(N)=O)nc1C(=O)NC(C(=O)NC(C)C(O)CC(=O)NC(C(=O)NC(OC1OC(C)C(N)C(O)C1O)C(O)c1nc(-c2nc(C(=O)NCCNCCO)cs2)cs1)C(C)O)C(OC1OC(CO)C(O)C(O)C1OC1OC(CO)C(O)C(OC(N)=O)C1O)c1c[nH]cn1 (stereo not drawn) [Tallysomycin S9b]	380 μ/mg	0.16 µg/mL	0.42 mg/kg/day	76	0.1	0.1	0.8	0.8	25	0.4	0.013	1.6	> 3.0 mg/kg/day	< 11	32 mg/kg/day	0.29 mg/kg/day	110	0.41 mg/kg/day	78
